From US20220289765A1, “CRYSTAL OF CARCINOGENIC FUSED KINASE INHIBITOR AND APPLICATIONS THEREOF” (Simcere Pharmaceutical Co., Ltd., priority 2019, published 2022)
pIC50: −log10 of the molar value. Where two headings read alike, the source gives them in different places.

Columns and labels:
Ros-G2032R = target: T1, Ros-G2032R (Homo sapiens, UniProt P08922, G2032R); assay: Kinase inhibitory activity (33P-ATP filtration-binding, Reaction Biology Corp.); format: biochemical; settings: read-out: Half Inhibitory Concentrations of Kinases IC50, Ros-G2032R
T1 construct: purchased Reaction Biology Corp
Experimental: (§1) The resulting mixture was incubated at room temperature for 20 minutes, and a certain concentration of 33P-ATP was added to the reaction mixture to initiate the reaction, followed by incubation at room temperature for 120 minutes. Finally, the radioactivity of the reactants was detected by a filtration-binding method. The final kinase activity was expressed by the ratio of the remaining kinase activity in the test sample to the kinase activity of the DMSO control group. The dose-effect curve was fitted by GraphPad software and the IC50 values were calculated.

Ros1 = target: T2, Ros1 (Homo sapiens, UniProt P08922); assay: as above; format: biochemical; settings: read-out: Half Inhibitory Concentrations of Kinases IC50, Ros1
T2 construct: purchased Reaction Biology Corp
Experimental: as §1

TrkA = target: T3, TrkA (Homo sapiens, UniProt P04629); assay: as above; format: biochemical; settings: read-out: Half Inhibitory Concentrations of Kinases IC50, TrkA
T3 construct: purchased Reaction Biology Corp
Experimental: as §1

TrkA-G595R = target: T4, TrkA-G595R (Homo sapiens, UniProt P04629, G595R); assay: as above; format: biochemical; settings: read-out: Half Inhibitory Concentrations of Kinases IC50, TrkA-G595R
T4 construct: purchased Reaction Biology Corp
Experimental: as §1

TrkA-G667C = target: T5, TrkA-G667C (Homo sapiens, UniProt P04629, G667C); assay: as above; format: biochemical; settings: read-out: Half Inhibitory Concentrations of Kinases IC50, TrkA-G667C
T5 construct: purchased Reaction Biology Corp
Experimental: as §1

TrkC = target: T6, TrkC (Homo sapiens, UniProt Q16288); assay: as above; format: biochemical; settings: read-out: Half Inhibitory Concentrations of Kinases IC50, TrkC
T6 construct: purchased Reaction Biology Corp
Experimental: as §1

Ba/F3 LMNA-NTRK1-F589L = assay: Cell proliferation inhibition (CellTiter-Glo, 72 h); format: cell-based; settings: Mus musculus, BaF3, read-out: Half Inhibitory Concentrations of Cells IC50, Ba/F3 LMNA-NTRK1-F589L
[1] = Cassette pharmacokinetic test in mice (plasma, brain, CSF); format: in vivo, male CD-1 mice; settings: cassette; for AUC(0-inf): read-out: Area under Curve AUC0-inf
Experimental: The pharmacokinetic behaviors of the compounds of the present invention in mice were studied and the pharmacokinetic properties thereof were evaluated.

[2] = Pharmacokinetic test in mice; format: in vivo; settings: male CD-1 mice; for AUC(0-t): read-out: Area under Curve AUC0-last
Experimental: The drug concentrations of the compounds in plasma at different time points were determined by LC/MS/MS method after single intravenous (IV) and intragastric (PO) administration of the compounds to 7-9 week old male CD-1 mice as the test animals. The pharmacokinetic behaviors of the compounds of the present invention in mice were studied and pharmacokinetic properties thereof were evaluated.
The compounds were prepared into clear solutions using 5% DMSO+10% solutol+85% water as a solvent for administration in IV (intravenous injection) and PO (gavage) groups. The administration dosage of each compound was 3 mg/kg for the IV group and […] for the PO group.

[3] = tested on: human colon cancer cell line KM12 cells subcutaneous xenograft tumor; assay: Efficacy test in mice, KM12 subcutaneous xenograft; format: in vivo, BALB/c mouse; settings: PO
Experimental: The in vivo efficacy of test drugs such as the compound of Formula (I) on human colon cancer cell line KM12 cells subcutaneous xenograft tumor in a BALB/c mouse model was evaluated.
(§2) The compounds were prepared into clear solutions using 5% DMSO+10% solutol+85% water as a solvent for administration in PO (gavage) groups.
(§3) The tumor diameter was measured twice a week using a vernier caliper. The formula for calculating the tumor volume is: V=0.5×a×b^2, wherein a and b represent the long diameter and the short diameter of the tumor, respectively. The antitumor efficacy of the compounds was evaluated with TGI (%), which reflects the inhibition rate of tumor growth.
(§4) Statistical analysis was performed using SPSS software based on relative tumor volume and tumor weight at the end of the experiment. Comparisons among multiple groups were analyzed by one-way ANOVA. If the variances were homogeneous (no significant difference in F-values), the analysis was performed by the Tukey's method, and if the variances were not homogeneous (significant difference in F-values), the test was performed by the Games-Howell method. P<0.05 was considered as a significant difference.

[4] = tested on: human lung cancer LU-01-0414 subcutaneous xenograft tumor; assay: Efficacy test in mice, LU-01-0414 subcutaneous xenograft; format: in vivo, BALB/c mouse; settings: PO, 14 days, LU-01-0414 xenograft
Experimental: The in vivo efficacy of test drugs such as the compound of Formula (I) on human lung cancer LU-01-0414 subcutaneous xenograft tumor in a BALB/c mouse model was evaluated.
as §2
as §3, with “diameters were” for “diameter was”
as §4

T6 sequence (Q16288 32-839): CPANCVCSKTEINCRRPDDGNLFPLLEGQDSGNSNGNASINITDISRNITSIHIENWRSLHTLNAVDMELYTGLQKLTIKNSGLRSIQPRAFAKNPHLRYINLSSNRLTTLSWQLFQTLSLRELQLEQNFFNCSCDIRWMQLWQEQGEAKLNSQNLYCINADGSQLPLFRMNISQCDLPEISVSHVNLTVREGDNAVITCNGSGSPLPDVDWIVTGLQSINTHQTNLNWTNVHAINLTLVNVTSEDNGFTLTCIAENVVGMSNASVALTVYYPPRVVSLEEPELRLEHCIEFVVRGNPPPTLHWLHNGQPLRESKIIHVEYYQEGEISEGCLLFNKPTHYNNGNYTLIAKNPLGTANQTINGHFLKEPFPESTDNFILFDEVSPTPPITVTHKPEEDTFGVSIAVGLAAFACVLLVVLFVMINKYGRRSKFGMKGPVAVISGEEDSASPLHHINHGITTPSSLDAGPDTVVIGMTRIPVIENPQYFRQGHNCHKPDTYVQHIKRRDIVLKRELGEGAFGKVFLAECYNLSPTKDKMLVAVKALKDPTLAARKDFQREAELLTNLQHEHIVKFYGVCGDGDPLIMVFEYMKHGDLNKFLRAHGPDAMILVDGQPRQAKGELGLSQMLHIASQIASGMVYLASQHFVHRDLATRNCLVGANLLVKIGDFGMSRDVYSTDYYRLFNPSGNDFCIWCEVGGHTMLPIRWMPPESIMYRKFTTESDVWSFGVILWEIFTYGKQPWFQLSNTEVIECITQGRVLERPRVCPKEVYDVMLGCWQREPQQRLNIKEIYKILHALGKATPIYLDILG
T1 sequence (P08922 28-2347 G2032R): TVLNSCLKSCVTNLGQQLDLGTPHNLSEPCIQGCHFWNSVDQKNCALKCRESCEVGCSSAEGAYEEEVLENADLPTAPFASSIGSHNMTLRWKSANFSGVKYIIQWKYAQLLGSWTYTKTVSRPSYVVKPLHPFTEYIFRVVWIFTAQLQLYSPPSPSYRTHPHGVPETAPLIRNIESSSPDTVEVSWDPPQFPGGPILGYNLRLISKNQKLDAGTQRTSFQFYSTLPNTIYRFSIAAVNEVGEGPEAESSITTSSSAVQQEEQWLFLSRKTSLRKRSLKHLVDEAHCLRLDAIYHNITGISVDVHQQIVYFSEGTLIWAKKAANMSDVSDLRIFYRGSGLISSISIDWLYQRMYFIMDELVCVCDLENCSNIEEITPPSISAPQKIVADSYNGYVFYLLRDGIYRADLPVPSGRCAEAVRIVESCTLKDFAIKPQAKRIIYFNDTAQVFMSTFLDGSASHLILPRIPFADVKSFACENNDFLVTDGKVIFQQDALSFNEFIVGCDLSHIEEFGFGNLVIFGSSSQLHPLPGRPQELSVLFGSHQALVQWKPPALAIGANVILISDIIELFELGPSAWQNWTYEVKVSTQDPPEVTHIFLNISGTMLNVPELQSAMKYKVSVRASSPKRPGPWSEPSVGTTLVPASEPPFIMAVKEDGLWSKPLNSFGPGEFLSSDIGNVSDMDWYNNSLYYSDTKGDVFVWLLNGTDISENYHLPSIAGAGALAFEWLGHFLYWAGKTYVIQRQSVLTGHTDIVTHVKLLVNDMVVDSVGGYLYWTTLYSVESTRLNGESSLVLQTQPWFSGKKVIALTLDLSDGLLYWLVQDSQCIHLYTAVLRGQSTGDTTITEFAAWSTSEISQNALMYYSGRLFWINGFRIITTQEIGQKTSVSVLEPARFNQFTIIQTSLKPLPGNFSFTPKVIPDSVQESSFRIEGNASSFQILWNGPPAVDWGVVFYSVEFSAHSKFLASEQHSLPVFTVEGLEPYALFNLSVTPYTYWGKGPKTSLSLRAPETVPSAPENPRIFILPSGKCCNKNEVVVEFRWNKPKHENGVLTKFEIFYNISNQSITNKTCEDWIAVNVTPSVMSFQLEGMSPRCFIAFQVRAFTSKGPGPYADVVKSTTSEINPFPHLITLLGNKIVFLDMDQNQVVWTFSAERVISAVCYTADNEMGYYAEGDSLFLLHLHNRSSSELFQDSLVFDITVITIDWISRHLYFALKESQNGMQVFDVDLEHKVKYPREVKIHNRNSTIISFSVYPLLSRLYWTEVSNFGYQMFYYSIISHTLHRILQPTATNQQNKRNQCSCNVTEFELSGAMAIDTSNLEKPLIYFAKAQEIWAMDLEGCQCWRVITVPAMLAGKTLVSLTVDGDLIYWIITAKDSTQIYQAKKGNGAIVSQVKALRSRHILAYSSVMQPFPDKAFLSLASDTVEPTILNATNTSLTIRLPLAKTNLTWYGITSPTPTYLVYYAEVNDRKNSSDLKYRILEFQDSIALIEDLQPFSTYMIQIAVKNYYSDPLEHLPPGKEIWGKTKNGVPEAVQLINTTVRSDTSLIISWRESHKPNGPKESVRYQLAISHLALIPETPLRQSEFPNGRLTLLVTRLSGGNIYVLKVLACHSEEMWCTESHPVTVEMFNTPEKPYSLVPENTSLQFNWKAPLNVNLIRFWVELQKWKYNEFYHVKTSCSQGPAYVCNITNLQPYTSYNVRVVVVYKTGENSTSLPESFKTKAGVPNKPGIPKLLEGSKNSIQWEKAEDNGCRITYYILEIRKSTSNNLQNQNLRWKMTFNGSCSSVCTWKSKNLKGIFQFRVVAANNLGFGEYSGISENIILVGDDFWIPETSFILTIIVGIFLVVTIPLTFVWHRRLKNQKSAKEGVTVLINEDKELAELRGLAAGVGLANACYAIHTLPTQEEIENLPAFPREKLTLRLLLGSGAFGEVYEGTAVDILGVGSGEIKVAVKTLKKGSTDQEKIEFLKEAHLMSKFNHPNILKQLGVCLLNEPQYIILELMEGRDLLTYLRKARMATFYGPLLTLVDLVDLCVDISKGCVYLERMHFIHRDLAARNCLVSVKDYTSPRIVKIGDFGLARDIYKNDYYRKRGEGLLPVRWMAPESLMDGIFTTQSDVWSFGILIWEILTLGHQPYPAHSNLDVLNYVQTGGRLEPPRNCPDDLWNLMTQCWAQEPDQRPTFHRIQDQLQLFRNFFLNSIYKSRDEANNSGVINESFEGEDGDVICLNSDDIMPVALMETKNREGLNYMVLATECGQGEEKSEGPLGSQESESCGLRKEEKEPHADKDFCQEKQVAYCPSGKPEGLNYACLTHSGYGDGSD
T2 sequence (P08922 28-2347): as the sequence (P08922 28-2347 G2032R) above, with R2005G counted along it
T4 sequence (P04629 33-796 G595R): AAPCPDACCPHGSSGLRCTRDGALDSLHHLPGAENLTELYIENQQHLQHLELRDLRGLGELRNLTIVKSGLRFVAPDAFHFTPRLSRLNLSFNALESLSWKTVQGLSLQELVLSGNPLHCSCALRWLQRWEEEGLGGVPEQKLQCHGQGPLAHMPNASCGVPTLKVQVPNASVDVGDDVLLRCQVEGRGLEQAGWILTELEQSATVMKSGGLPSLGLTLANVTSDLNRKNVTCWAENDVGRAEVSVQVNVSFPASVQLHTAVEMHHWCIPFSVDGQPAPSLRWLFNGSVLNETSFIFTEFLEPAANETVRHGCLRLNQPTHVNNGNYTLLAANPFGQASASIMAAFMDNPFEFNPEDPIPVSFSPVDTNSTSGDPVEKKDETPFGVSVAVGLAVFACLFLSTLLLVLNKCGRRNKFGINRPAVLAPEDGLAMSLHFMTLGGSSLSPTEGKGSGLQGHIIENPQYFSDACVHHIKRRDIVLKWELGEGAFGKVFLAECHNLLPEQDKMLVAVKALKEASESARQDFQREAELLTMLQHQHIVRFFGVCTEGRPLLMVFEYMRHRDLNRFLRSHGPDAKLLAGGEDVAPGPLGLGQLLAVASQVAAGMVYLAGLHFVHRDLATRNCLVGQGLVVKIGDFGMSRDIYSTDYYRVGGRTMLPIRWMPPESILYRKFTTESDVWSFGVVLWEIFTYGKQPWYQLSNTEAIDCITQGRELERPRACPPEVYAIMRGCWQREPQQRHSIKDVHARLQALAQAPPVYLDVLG
T5 sequence (P04629 33-796 G667C): as the sequence (P04629 33-796 G595R) above, with R563G, G635C counted along it
T3 sequence (P04629 33-796): as the sequence (P04629 33-796 G595R) above, with R563G counted along it

pIC50 (Ros-G2032R): 9.40
pIC50 (Ros1): 9.85
pIC50 (TrkA): 8.68
pIC50 (TrkA-G595R): 8.44
pIC50 (TrkA-G667C): 8.15
pIC50 (TrkC): 9.85
pIC50 (Ba/F3 LMNA-NTRK1-F589L): 9.11
Apparent Clearance Cl ([1]; IV @ 1 mpk, male CD-1 mice): 6.3 mL/min/kg
Drug Concentration in Cerebrospinal Fluid at 0.5 h ([1]; PO @ 3 mpk, CSF, 0.5 h): 63 nmol/kg
Drug Concentration in Cerebrospinal Fluid at 2 h ([1]; PO @ 3 mpk, CSF, 2 h): 21 nmol/kg
Drug Concentration in Brain at 0.5 h ([1]; PO @ 3 mpk, brain, 0.5 h): 663 nmol/kg
Drug Concentration in Brain at 2 h ([1]; PO @ 3 mpk, brain, 2 h): 343 nmol/kg
Vd ([1]; mouse, plasma, 1 mg/kg, IV @ 1 mpk, male CD-1 mice, read-out: Apparent Distribution Volume Vd): 0.57 L/kg
AUC(0-inf) ([1]; mouse, plasma, 1 mg/kg, IV @ 1 mpk, male CD-1 mice): 6.69 µM·h
half-life ([1]; mouse, plasma, 1 mg/kg, IV @ 1 mpk, male CD-1 mice, read-out: Half-life T1/2 (converted)): 52.8 min
C0 ([1]; mouse, plasma, 1 mg/kg, IV @ 1 mpk, male CD-1 mice, read-out: Initial Concentration C0): 3.71 µM
bioavailability ([1]; mouse, plasma, 3 mg/kg, PO @ 3 mpk vs IV @ 1 mpk, male CD-1 mice, read-out: Bioavailability F %): 76%
AUC(0-inf) ([1]; mouse, plasma, 3 mg/kg, PO @ 3 mpk, male CD-1 mice): 19.8 µM·h
Cmax ([1]; mouse, plasma, 3 mg/kg, PO @ 3 mpk, male CD-1 mice, read-out: Peak Concentration Cmax): 4.74 µM
Tmax ([1]; mouse, plasma, 3 mg/kg, PO @ 3 mpk, male CD-1 mice, read-out: Time to Peak Tmax): 15 min
Apparent Clearance Cl ([2]; IV, 3 mg/kg): 7.2 mL/min/kg
Vd ([2]; mouse, plasma, IV, 3 mg/kg, read-out: Apparent Distribution Volume Vd): 0.49 L/kg
AUC(0-t) ([2]; mouse, plasma, IV, 3 mg/kg): 17.5 µM·h
half-life ([2]; mouse, plasma, IV, 3 mg/kg, read-out: Half-life T1/2 (converted)): 45 min
bioavailability ([2]; mouse, plasma, PO (10 mL/kg [sic]) vs IV 3 mg/kg, read-out: Bioavailability F %): 51%
AUC(0-t) ([2]; mouse, plasma, PO, dosage given as 10 mL/kg): 29.8 µM·h
Cmax ([2]; mouse, plasma, PO, dosage given as 10 mL/kg, read-out: Peak Concentration Cmax): 9.14 µM
Tmax ([2]; mouse, plasma, PO, dosage given as 10 mL/kg, read-out: Time to Peak Tmax): 30 min
SMILES: O=C1NC2(CC2)COc2ncc(F)cc2[C@H]2CCON2c2ccn3ncc1c3n2 [Compound of Formula (I)]
T/C ([3]; 3 mg/kg): 33.18%
TGI ([3]; 3 mg/kg): 71.23%
T/C ([3]; 15 mg/kg): 15.63%
TGI ([3]; 15 mg/kg): 88.61%
T/C ([4]; 3 mg/kg BID): 9.57%
TGI ([4]; 3 mg/kg BID): 118.02%
T/C ([4]; 15 mg/kg BID): 3.07%
TGI ([4]; 15 mg/kg BID): 126.88%
T/C ([4]; 30 mg/kg BID): 1.87%
TGI ([4]; 30 mg/kg BID): 128.36%
